The source of these data is patent US11584765B2 (priority 2017, dated 2023).

Where only a bound is given, the exact number is not on record here.

For the test, the system named is C57BL/6 mice. Kind of test: animal or person. Format: in vivo. Particulars: Mus musculus, sc, 0.5 h, s.c. administration, 30 min, 55° C. water, read-out: ED50 (mg/kg) at 30 min on C57BL/6 mice in Warm-water Tail-flick Test. (In general: In hot-plate and tail-flick tests a longer latency is read as antinociception.)
Regarding `CC(=O)Nc1ccc(CN2CCC(CCCc3ccccc3)(c3ccccn3)CC2)cc1` [Compound 15, N-(4-((4-(3-phenylpropyl)-4-(pyridin-2-yl)piperidin-1-yl)methyl)phenyl)acetamide], the ED50 is greater than 10 mg/kg. As for `CC(=O)Nc1ccc(CN2CCC(CCc3ccccn3)(c3ccccn3)CC2)cc1` [Compound 16, N-(4-((4-(pyridin-2-yl)-4-(2-(pyridin-2-yl)ethyl)piperidin-1-yl)methyl)phenyl)acetamide], the ED50 is greater than 10 mg/kg. For `CC(=O)N(C)c1ccc(CN2CCC(CCc3ccccc3)(c3ccccn3)CC2)cc1` [Compound 17, N-methyl-N-(4-((4-phenethyl-4-(pyridin-2-yl)piperidin-1-yl)methyl)phenyl)acetamide] the value was greater than 10 mg/kg; for `CC(C)C(=O)Nc1ccc(CN2CCC(CCc3ccccc3)(c3ccccn3)CC2)cc1` [Compound 18, N-(4-((4-phenethyl-4-(pyridin-2-yl)piperidin-1-yl)methyl)phenyl)iso-butyramide], greater than 10 mg/kg. As to `CCC(=O)Nc1ccc(CN2CCC(CCc3ccccc3)(c3ccccn3)CC2)cc1` [Compound 19, N-(4-((4-phenethyl-4-(pyridin-2-yl)piperidin-1-yl)methyl)phenyl)pro-pionamide], the ED50 was greater than 10 mg/kg. Turning to `CCCCC(=O)Nc1ccc(CN2CCC(CCc3ccccc3)(c3ccccn3)CC2)cc1` [Compound 20, N-(4-((4-phenethyl-4-(pyridin-2-yl)piperidin-1-yl)methyl)phenyl)pen-tanamide], the ED50 is greater than 10 mg/kg.

Take `CC(C)CCC(=O)Nc1ccc(CN2CCC(CCc3ccccc3)(c3ccccn3)CC2)cc1` [Compound 21, 4-methyl-N-(4-((4-phenethyl-4-(pyridin-2-yl)piperidin-1-yl)methyl)phenyl)pen-tanamide]: the ED50 was greater than 10 mg/kg. For `CCOC(=O)Nc1ccc(CN2CCC(CCc3ccccc3)(c3ccccn3)CC2)cc1` [Compound 22, ethyl 4-((4-phenethyl-4-(pyridin-2-yl)piperidin-1-yl)methyl)phenylcarbamate] the value was greater than 10 mg/kg; for `NC(=O)Nc1ccc(CN2CCC(CCc3ccccc3)(c3ccccn3)CC2)cc1` [Compound 23, 1-(4-((4-phenethyl-4-(pyridin-2-yl)piperidin-1-yl)methyl)phenyl)urea], greater than 10 mg/kg. For the compound `O=C(Nc1ccc(CN2CCC(CCc3ccccc3)(c3ccccn3)CC2)cc1)c1ccccc1` [Compound 24, N-(4-((4-phenethyl-4-(pyridin-2-yl)piperidin-1-yl)methyl)phenyl)benz-amide], the ED50 was greater than 10 mg/kg. Turning to `CNc1ccc(CN2CCC(CCc3ccccc3)(c3ccccn3)CC2)cc1` [Compound 25, N-methyl-4-((4-phenethyl-4-(pyridin-2-yl)piperidin-1-yl)methyl)aniline], the ED50 was greater than 10 mg/kg.

For `c1ccc(CCC2(c3ccccn3)CCN(Cc3ccccc3)CC2)cc1` [Compound 26, 2-(1-benzyl-4-phenethylpiperidin-4-yl)pyridine], the ED50 was greater than 10 mg/kg. With `COC(=O)C1(CCc2ccccc2)CN(Cc2ccc(NC(C)=O)cc2)C1.Cl` [Compound 27, methyl 1-(4-acetamidobenzyl)-3-phenethylazetidine-3-carboxylate HCl], the ED50 was greater than 10 mg/kg. With `COC(=O)C1(CCc2ccccc2)CCN(Cc2ccc(NC(C)=O)cc2)C1` (stereo not shown) [Compound 28, methyl 1-(4-acetamidobenzyl)-3-phenethylpyrrolidine-3-carboxylate], the ED50 is less than 10 mg/kg. Turning to `COC(=O)C1(CCc2ccccc2)CCCN(Cc2ccc(NC(C)=O)cc2)C1` (stereo not shown) [Compound 29, methyl 1-(4-acetamidobenzyl)-3-phenethylpiperidine-3-carboxylate], the ED50 is greater than 10 mg/kg. Take `CC(=O)Nc1ccc(CN2CCC(CCc3ccccc3)(c3ccccn3)C2)cc1` (stereo not shown) [Compound 30, N-(4-((3-phenethyl-3-(pyridin-2-yl)pyrrolidin-1-yl)methyl)phenyl)acetamide]: the ED50 was greater than 10 mg/kg. As to `CC(=O)Nc1ccc(NN2CCC(CCc3ccccc3)(c3ccccn3)CC2)cc1` [Compound 31, N-(4-(4-phenethyl-4-(pyridin-2-yl)piperidin-1-ylamino)phenyl)acetamide], the ED50 is greater than 10 mg/kg. `CC(=O)Nc1ccc(CN2CCCC(CCc3ccccc3)(c3ccccn3)C2)cc1` (stereo not shown) [Compound 32, N-(4-((3-phenethyl-3-(pyridin-2-yl)piperidin-1-yl)methyl)phenyl)acetamide]: the ED50 was greater than 10 mg/kg. As to `CC(=O)Nc1ccc(CN2CCC(/C=C/c3ccccc3)(c3ccccn3)CC2)cc1` [Compound 33, (E)-N-(4-((4-(pyridin-2-yl)-4-styrylpiperidin-1-yl)methyl)phenyl)acetamide], the ED50 was greater than 10 mg/kg.

As to `CC(=O)Nc1ccc(CN2CCC(CCc3ccccc3)(c3nccn3C)CC2)cc1` [Compound 34, N-(4-((4-(1-methyl-1H-imidazol-2-yl)-4-phenethylpiperidin-1-yl)methyl)phenyl)acetamide], the ED50 was greater than 10 mg/kg. On to `CC(=O)NCCCCN1CCC(CCc2ccccc2)(c2ccccn2)CC1` [Compound 35, N-(4-(4-phenethyl-4-(pyridin-2-yl)piperidin-1-yl)butyl)acetamide], for which the ED50 is greater than 10 mg/kg.

Regarding `CC(=O)NCCN1CCC(CCc2ccccc2)(c2ccccn2)CC1` [Compound 36, N-(2-(4-phenethyl-4-(pyridin-2-yl)piperidin-1-yl)ethyl)acetamide], the ED50 was greater than 10 mg/kg. As for `CC(=O)Nc1ccc(CN2CCC(CCc3ccccc3)(c3cccc(F)n3)CC2)cc1` [Compound 37, N-(4-((4-(6-fluoropyridin-2-yl)-4-phenethylpiperidin-1-yl)methyl)phenyl)acetamide], the ED50 is greater than 10 mg/kg.

With `COc1ccc(C2(CCc3ccccc3)CCN(Cc3ccc(NC(C)=O)cc3)CC2)nc1` [Compound 38, N-(4-((4-(5-methoxypyridin-2-yl)-4-phenethylpiperidin-1-yl)methyl)phenyl)acetamide], the ED50 was greater than 10 mg/kg. For the compound `CC(=O)Nc1ccc(CN2CCC(CCc3ccccc3)(Cc3ccccn3)CC2)cc1` [Compound 39, N-(4-((4-phenethyl-4-(pyridin-2-ylmethyl)piperidin-1-yl)methyl)phenyl)acetamide], the ED50 is greater than 10 mg/kg. On to `CC(=O)Nc1ccc(CN2CCC(/C=C/c3ccccc3)(c3ccncc3)CC2)cc1` [Compound 40, (E)-N-(4-((4-(pyridin-4-yl)-4-styrylpiperidin-1-yl)methyl)phenyl)acetamide], for which the ED50 is greater than 10 mg/kg. Consider `Nc1ccc(CN2CCC(CCc3ccccc3)(c3ccccn3)CC2)cc1` [Compound 41, 4-((4-phenethyl-4-(pyridin-2-yl)piperidin-1-yl)methyl)aniline], for which the ED50 is greater than 10 mg/kg.

With `CC(=O)Nc1ccc(CN2CCC(C(=O)c3ccccc3)(c3ccccn3)CC2)cc1` [Compound 42, N-(4-((4-benzoyl-4-(pyridin-2-yl)piperidin-1-yl)methyl)phenyl)acetamide], the ED50 was greater than 10 mg/kg. `CC(=O)N(C)c1ccc(CN2CCC(CCc3ccccc3)(c3ncc[nH]3)CC2)cc1` [Compound 43, N-(4-((4-(1H-imidazol-2-yl)-4-phenethylpiperidin-1-yl)methyl)phenyl)-N-methylacetamide]: the ED50 is greater than 10 mg/kg. For the compound `CC(=O)Nc1ccc(CN2CCC(/C=C/c3ccccn3)(c3ccccn3)CC2)cc1` [Compound 44, (E)-N-(4-((4-(pyridin-2-yl)-4-(2-(pyridin-2-yl)vinyl)piperidin-1-yl)methyl)phenyl)acetamide], the ED50 is greater than 10 mg/kg. For `CC(=O)Nc1ccc(CN2CCC(c3ccccn3)(C(O)c3ccccc3)CC2)cc1` (stereo not shown) [Compound 45, N-(4-((4-(hydroxy(phenyl)methyl)-4-(pyridin-2-yl)piperidin-1-yl)methyl)phenyl)acetamide] the value was greater than 10 mg/kg; for `CC(=O)Nc1ccc(CN2CCC(/C=C/Cc3ccccc3)(c3ccccn3)CC2)cc1` [Compound 46, (E)-N-(4-((4-(3-phenylprop-1-enyl)-4-(pyridin-2-yl)piperidin-1-yl)methyl)phenyl)acetamide], greater than 10 mg/kg; for `CC(=O)Nc1ccc(CN2CCC(/C=C/c3ccccc3)(c3cccc(F)n3)CC2)cc1` [Compound 47, (E)-N-(4-((4-(6-fluoropyridin-2-yl)-4-styrylpiperidin-1-yl)methyl)phenyl)acetamide], greater than 10 mg/kg. For `CC(=O)Nc1ccc(CN2CCC(/C=C/c3ccccc3)(c3cccnc3)CC2)cc1` [Compound 48, (E)-N-(4-((4-(pyridin-3-yl)-4-styrylpiperidin-1-yl)methyl)phenyl)acetamide], the ED50 was greater than 10 mg/kg. Regarding `C=CCC1(c2ccccn2)CCN(Cc2ccc(NC(C)=O)cc2)CC1` [Compound 49, N-(4-((4-allyl-4-(pyridin-2-yl)piperidin-1-yl)methyl)phenyl)acetamide], the ED50 is greater than 10 mg/kg. Take `O=C(Nc1ccc(CN2CCC(CCc3ccccc3)(c3ccccn3)CC2)cc1)C(F)(F)F` [Compound 50, 2,2,2-trifluoro-N-(4-((4-phenethyl-4-(pyridin-2-yl)piperidin-1-yl)methyl)phenyl)acetamide]: the ED50 is greater than 10 mg/kg. For `CC(=O)Nc1ccc(CN2CCC(CCc3ccccc3)(c3ccccn3)CC2)cc1F.Cl` [Compound 52, N-(2-fluoro-4-((4-phenethyl-4-(pyridin-2-yl)piperidin-1-yl)methyl)phenyl)acetamide HCl], the ED50 was greater than 10 mg/kg. Turning to `CC(=O)Nc1ccc(CN2CCC(CCc3ccccc3)(c3ccccn3)CC2)c(F)c1` [Compound 53, N-(3-fluoro-4-((4-phenethyl-4-(pyridin-2-yl)piperidin-1-yl)methyl)phenyl)acetamide], the ED50 is greater than 10 mg/kg. `CNC(=O)c1ccc(CN2CCC(CCc3ccccc3)(c3ccccn3)CC2)cc1` [Compound 54, N-methyl-4-((4-phenethyl-4-(pyridin-2-yl)piperidin-1-yl)methyl)benzamide]: the ED50 is greater than 10 mg/kg. For the compound `NC(=O)c1ccc(CN2CCC(CCc3ccccc3)(c3ccccn3)CC2)cc1` [Compound 55, 4-((4-phenethyl-4-(pyridin-2-yl)piperidin-1-yl)methyl)benzamide], the ED50 is greater than 10 mg/kg.
